The values below come from patent US20240417342A1, “METHOD FOR PRODUCING GRANULAR COMPOSITION CONTAINING GLUTATHIONE” (KANEKA CORPORATION, priority 2022, published 2024).

Each structure is given as a SMILES string. Where two headings read alike, the source gives them in different places.

The nature of this data set: Solubility in water at 20° C. In kind it is physicochemical. How it is done:
Specifically, the percentage can be expressed as the number of grams of the nitrogen-containing fertilizer component that is soluble in 100 ml of water at 20° C.

Consider `N[C@@H](Cc1c[nH]cn1)C(=O)O` [L-histidine], for which the “solubility in water at 20° C.” value was 4.2 g/100 mL. Further, for the setting “% = g per 100 ml water”, the “solubility in water at 20° C.” value is listed as 4.2%.

Consider `CC[C@H](C)[C@H](N)C(=O)O` [L-isoleucine], for which the “solubility in water at 20° C.” value was 4.0 g/100 mL. The “solubility in water at 20° C.” value (% = g per 100 ml water) is 4.0%.

With `NC(=O)NC1NC(=O)NC1=O` (stereo not drawn) [allantoin], the “solubility in water at 20° C.” value is recorded as 0.5 g/100 mL. Besides, the “solubility in water at 20° C.” value (% = g per 100 ml water) worked out at 0.5%.
